Reference: ChEMBL document CHEMBL4673239, “Discovery of Tyrosine Kinase 2 (TYK2) Inhibitor (PF-06826647) for the Treatment of Autoimmune Diseases” (J Med Chem, 2020)
≈ marks a conversion by molar mass, not a printed value. Calls of active or inactive are those of the source. The rule behind the calls is not given here.

Columns and labels:
[1] = Apparent permeability in MDCK-II cells; format: ADME, cell-based, Canis lupus familiaris; conditions: dog
[2] = Clearance in human liver microsomes assessed per mg protein; format: ADME, Microsome; conditions: read-out: CLH
[3] = Fraction unbound in human plasma; format: ADME, cell-free
[4] = Dissociation constant, basic pKa of compound; format: physicochemical
[5] = Thermodynamic solubility of the compound at pH 7.4 using crystalline form of sample; format: physicochemical; conditions: read-out: Therm_solubility
[6] = Clearance in Sprague-Dawley rat at 1 mg/kg, iv; format: ADME, organism-based; conditions: in vivo
[7] = Volume of distribution at steady state in Sprague-Dawley rat at 1 mg/kg, iv; format: ADME, organism-based; conditions: in vivo, read-out: Vdss
[8] = AUC infinity in Sprague-Dawley rat at 1 mg/kg, iv; format: ADME, organism-based; set-up: time infinity, route intravenous, dose 1 mg/kg; conditions: in vivo
[9] = Oral bioavailability in Sprague-Dawley rat at 3 mg/kg using crystalline form of sample; format: ADME, organism-based; conditions: in vivo
[10] = Oral bioavailability in Sprague-Dawley rat at 30 mg/kg using crystalline form of sample; format: ADME, organism-based; conditions: in vivo
[11] = Oral bioavailability in Sprague-Dawley rat at 3 mg/kg using SDD formulation; format: ADME, organism-based; conditions: in vivo
[12] = Oral bioavailability in Sprague-Dawley rat at 30 mg/kg using SDD formulation; format: ADME, organism-based; conditions: in vivo
[13] = Cmax in Sprague-Dawley rat at 3 mg/kg, po using SDD formulation; format: ADME, organism-based; set-up: route oral, dose 3 mg/kg; conditions: in vivo
[14] = Cmax in Sprague-Dawley rat at 30 mg/kg, po using SDD formulation; format: ADME, organism-based; set-up: route oral, dose 30 mg/kg; conditions: in vivo
[15] = AUC infinity in Sprague-Dawley rat at 3 mg/kg, po using SDD formulation; format: ADME, organism-based; set-up: time infinity, route oral, dose 3 mg/kg; conditions: in vivo
[16] = AUC infinity in Sprague-Dawley rat at 30 mg/kg, po using SDD formulation; format: ADME, organism-based; set-up: time infinity, route oral, dose 30 mg/kg; conditions: in vivo
[17] = Protein binding in rat plasma; format: ADME, cell-free; conditions: read-out: PPB (converted)
[18] = Protein binding in human plasma; format: ADME, cell-free
[19] = Renal excretion in rat; format: ADME, Kidney; conditions: urine, read-out: Drug excretion
[20] = Bile excretion in rat; format: ADME; conditions: read-out: Drug excretion
[21] = Unbound drug level in imiquimod-induced mouse model of skin inflammation at 1 mg/kg, po qd; format: ADME, organism-based; conditions: in vivo
[22] = Unbound drug level in imiquimod-induced mouse model of skin inflammation at 3 mg/kg, po qd; format: ADME, organism-based; conditions: in vivo
[23] = Unbound drug level in imiquimod-induced mouse model of skin inflammation at 10 mg/kg, po qd; format: ADME, organism-based; conditions: in vivo
[24] = Unbound drug level in imiquimod-induced mouse model of skin inflammation at 30 mg/kg, po qd; format: ADME, organism-based; conditions: in vivo
Mus musculus [25] = assay: Antiinflammatory activity in imiquimod-induced mouse model of skin inflammation assessed as reduction in IL12 stimulation at 1 mg/kg, po qd; format: functional; set-up: scale not given: the % may be the effect or the level left
Mus musculus [26] = assay: Antiinflammatory activity in imiquimod-induced mouse model of skin inflammation assessed as reduction in IL12 stimulation at 3 mg/kg, po qd; format: functional; set-up: scale not given: the % may be the effect or the level left
Mus musculus [27] = assay: Antiinflammatory activity in imiquimod-induced mouse model of skin inflammation assessed as reduction in IL12 stimulation at 10 mg/kg, po qd; format: functional; set-up: scale not given: the % may be the effect or the level left
Mus musculus [28] = assay: Antiinflammatory activity in imiquimod-induced mouse model of skin inflammation assessed as reduction in IL12 stimulation at 30 mg/kg, po qd; format: functional; set-up: scale not given: the % may be the effect or the level left
Mus musculus [29] = assay: Antiinflammatory activity in imiquimod-induced mouse model of skin inflammation assessed as reduction in ear swelling at 1 mg/kg, po qd; format: functional, organism-based
Mus musculus [30] = assay: Antiinflammatory activity in imiquimod-induced mouse model of skin inflammation assessed as reduction in ear swelling at 30 mg/kg, po qd relative to control; format: functional; set-up: scale not given: the % may be the effect or the level left
Mus musculus [31] = assay: Antiinflammatory activity in imiquimod-induced mouse model of skin inflammation assessed as reduction in ear swelling at 10 mg/kg, po qd relative to control; format: functional; set-up: scale not given: the % may be the effect or the level left
Mus musculus [32] = assay: Antiinflammatory activity in imiquimod-induced mouse model of skin inflammation assessed as reduction in ear swelling at 3 mg/kg, po qd relative to control; format: functional; set-up: scale not given: the % may be the effect or the level left
physchem = conditions: octanol/water phosphate buffer, pH 7.4
Description: Octanol/water phosphate buffer partition coefficient, log D of compound at pH 7.4 by shake-flask method

Cn1cc(-c2cn3nccc3c(-c3cnn([C@]4(CC#N)C[C@@H](C#N)C4)c3)n2)cn1 [ROPSACITINIB]
Papp [1]: 17 ×10⁻⁶ cm/s
microsomal CLint [2]: < 8 µL/min/mg
Fu [3]: 0.38
pKa [4]: < 1.7
solubility thermodynamic [5]: 0.8 µM (≈ 0.307 µg/mL)
clearance [6]: 12 mL/min/kg
Vd [7]: 1.1 L/kg
AUC(0-inf) [8]: 1380 ng·h/mL
bioavailability [9]: 15%
bioavailability [10]: 8%
bioavailability [11]: 58%
bioavailability [12]: 63%
Cmax [13]: 369 ng/mL
Cmax [14]: 2780 ng/mL
AUC(0-inf) [15]: 2390 ng·h/mL
AUC(0-inf) [16]: 25900 ng·h/mL
fraction unbound [17]: 0.82
PPB [18]: 38%
dose excreted [19]: 1.3%
dose excreted [20]: 0.9%
Drug uptake(free) [21]: 14.5 nM
Drug uptake(free) [22]: 45.7 nM
Drug uptake(free) [23]: 225 nM
Drug uptake(free) [24]: 668 nM
Activity (Mus musculus [25]): 51%
Activity (Mus musculus [26]): 77%
Activity (Mus musculus [27]): 94%
Activity (Mus musculus [28]): 98%
Activity (Mus musculus [29]): inactive
Activity (Mus musculus [30]): 46.2%
Activity (Mus musculus [31]): 34%
Activity (Mus musculus [32]): 31.3%
logD (physchem): 1.7
